Source: publication PMC6288471 (Frontiers in Veterinary Science, 2018)
“Also recorded” adds a separate entry of the source. Read-outs that look alike come from different tables or passages of the source.

Assays:
[1] = Pharmacokinetics of apixaban after oral and intravenous administration; plasma concentrations by UPLC-MS, two-compartment model; type: in vivo; conditions: horses; for half-life / clearance / Vd: iv
Description: The first and last treatments for each horse were IV administration of drug or placebo (Figure 1). […] Investigators were blinded to each treatment until the conclusion of the study.
Blood samples were collected before drug administration (time 0) and at 3 (IV) or 15 (PO) min, then at 30, 45 min, 1, 2, 3, 4, 6, 8, and 24 h after drug administration into 6-mL syringes (Monoject Syringe, Covidien Ltd, Mansfield, MA, USA) prefilled with 3.8% citrate anticoagulant (Sigma-Aldrich, St Louis, MO, USA) maintaining a ratio of 9:1 blood:citrate. The citrate-anticoagulated blood was used to prepare platelet-poor plasma (PPP) for measurement of UPLC-MS concentrations, anti-Xa activities and dilute prothrombin times (dPT) and platelet-rich plasma (PRP) for flow cytometric analysis of ex vivo platelet activation in response to exposure to EHV-1. Blood was also collected into EDTA- and non-anticoagulant samples for clinical pathologic testing before and 24 h after each treatment (Figure 1). With the exception of 24 h samples, blood was collected at each time point through an indwelling jugular catheter (14 G × 15 cm, Milacath®, MILA International, Florence, KY, USA) after removing 20–30 mL of blood. Patency of the catheters was maintained by flushes with sterile saline solution (0.9% sodium chloride injection USP, Baxter Healthcare Corporation, Deerfield, IL, USA) after each blood draw. The catheter was removed after collection of the 8 h sample. For IV administration, a second catheter was placed in the opposite jugular vein for bolus drug delivery and removed immediately after drug administration and flushing of the catheter with sterile saline. For the 24 h sample, blood was collected from the jugular vein (the vein contralateral to that used for the indwelling catheter) into a 3.8% citrate anticoagulant prefilled 6-mL syringe via an 18 G needle (Monoject Veterinary Needle, Covidien Ltd, Mansfield, MA, USA) and into EDTA- and non-anticoagulant vacutainers (Becton-Dickinson, Franklin Lakes, NJ, USA) via a vacutainer needle (21 G, Becton-Dickinson Eclipse™ Vacutainer® with pre-attached holder).
This was performed as previously described ([33]). Analysis by UPLC-MS/MS was performed on a 2D UPLC system (Waters Acquity UPLC H-class with 2D Technology System, Waters GmbH, Eschborn, Germany) directly coupled to a Xevo TQ-S tandem mass spectrometer (Waters GmbH, Eschborn, Germany) which was operated in electrospray positive ionization mode. The system control and data acquisition were performed using MassLynx NT 4.1 software with automated data processing by the MassLynx QuanLynx program provided with the instrument. The lower limit of detection for all DOACs of the UPLC-MS/MS method was < 0.2 ng/mL. Since DOAC values < 7 ng/ml were not clinically relevant, all time points below this value were considered zero.
Pharmacokinetic analysis was performed using a two-compartment open model with weighting of 1/y^2 (Phoenix®, WinNonlin® software, Certara Inc., St. Louis, Missouri).
Secondary parameters calculated include distribution (α) and elimination (β) half-lives (T½), microdistribution rate constants, area-under-the-curve (AUC), apparent volume of distribution at steady-state (VSS), systemic clearance (CL), and mean residence time (MRT).

[2] = Clinical pathologic testing: automated hemogram; type: in vivo; conditions: horses, 24 h after PO or IV administration
Description: (§1) Automated hemogram results were obtained from the EDTA-anticoagulated blood with a hematology analyzer (ADVIA 2120, Siemens Healthcare Diagnostics Inc., Tarrytown, NJ, USA). To verify the automated platelet counts, modified Wright's-stained blood smears were evaluated for platelet clumps by trained medical technologists. Biochemical analysis for renal analytes (serum urea nitrogen and creatinine concentrations), liver enzymes (sorbitol dehydrogenase, glutamate dehydrogenase, aspartate aminotransferase and gamma glutamyl transferase activities), protein-related analytes (total protein, albumin, and globulin concentrations), and the acute phase protein, serum amyloid A, were performed with an automated chemistry analyzer (Hitachi P modular, Roche Diagnostics, Indianapolis, IN, USA) using manufacturer's reagents, with the exception of sorbitol dehydrogenase (Sigma-Aldrich), glutamate dehydrogenase (Randox Laboratories Ltd, Antrim, UK), and serum amyloid A (LZ test Eiken-SAA, Mast House, Merseyside, UK).

[3] = Clinical pathologic testing: select biochemical tests; type: in vivo, horses; conditions: for SDH (sorbitol dehydrogenase), median (range): reference interval 0–11; for GLDH (glutamate dehydrogenase), median (range): reference interval 1–8; for UN (urea nitrogen), median (range): reference interval 3.9–10.0; for SAA (serum amyloid A), median (range): reference interval 5–20, 5 mg/L is the lower limit of detection; for GGT (gamma glutamyl transferase), median (range): reference interval 8–29; for GLOB (globulins), median (range): reference interval 24–44; for ALB (albumin), median (range): reference interval 30–37; for CREAT (creatinine), median (range): reference interval 53–141; for TP (total protein), median (range): reference interval 57–77
Description: as §1

[4] = tested on: platelets; conditions: PRP spiked ex vivo with concentrations similar to 44 to 74 ng/mL, data not shown
[5] = cats, cited from earlier work
[6] = rabbits, cited from earlier work
[7] = chimpanzees; cited from earlier work
[8] = humans; cited from earlier work
[9] = tested on: P-glycoprotein; conditions: cited from earlier work
[10] = single oral dose 0.2 mg/kg, 0.2 mg/kg

## COc1ccc(-n2nc(C(N)=O)c3c2C(=O)N(c2ccc(N4CCCCC4=O)cc2)CC3)cc1 [apixaban]
[1]; horse, plasma, IV administration, read-out: elimination half-life (converted)
  half-life: 1.3 ± 0.2 h
[1]; horse, plasma, IV administration, read-out: rate of clearance (converted)
  clearance: 2.53 mL/min/kg
[1]; horse, plasma, IV administration, read-out: volume of distribution (VDSS)
  Vd: 0.0933 ± 0.0756 L/kg
[1]; horse, plasma, IV administration, read-out: time of peak plasma concentration (converted)
  Tmax: 3 min
[1]; IV administration
  volume of distribution (VDSS): ~ 90 mL/kg
[1]; IV administration, all horses
  time by which plasma apixaban decreased to undetectable levels: ≤ 8 h
[1]; [10]
  apixaban in plasma after oral administration (UPLC-MS): no detectable apixaban in plasma; also recorded: not detected in plasma
  oral absorption: not orally absorbed
[1]; plasma, single IV dose […], read-out: CL (systemic clearance), geometric mean (converted)
  clearance: 2.45 mL/min/kg
[1]; plasma, single IV dose […], read-out: CL (systemic clearance), mean (converted)
  clearance: 2.53 mL/min/kg
[1]; plasma, single IV dose […], read-out: VC (apparent volume of distribution for central compartment), geometric mean
  Vd: 0.0164 L/kg
[1]; plasma, single IV dose […], read-out: VC (apparent volume of distribution for central compartment), mean
  Vd: 0.0201 L/kg
[1]; plasma, single IV dose […], read-out: VSS (volume of distribution at steady-state), geometric mean
  Vd: 0.0718 L/kg
[1]; plasma, single IV dose […], read-out: VSS (volume of distribution at steady-state), mean
  Vd: 0.0933 L/kg
[1]; plasma, single IV dose […], read-out: t½β (half-life of the elimination phase), geometric mean (converted)
  half-life: 1.27 h
[1]; plasma, single IV dose […], read-out: t½β (half-life of the elimination phase), mean (converted)
  half-life: 1.28 h
[2]
  changes in hematologic test results: no significant changes
[3]; IV, T0 (before)
  SDH (sorbitol dehydrogenase), median (range): 4 (3–4) U/L
  GLDH (glutamate dehydrogenase), median (range): 4 (3–4) U/L
  UN (urea nitrogen), median (range): 6.8 (6.1–7.8) mmol/L
  SAA (serum amyloid A), median (range): 5 (5–9) mg/L
  GGT (gamma glutamyl transferase), median (range): 11 (10–13) U/L
  GLOB (globulins), median (range): 36 (32–38) g/L
  ALB (albumin), median (range): 32 (30–34) g/L
  CREAT (creatinine), median (range): 106 (97–106) μmol/L
  TP (total protein), median (range): 68 (66–71) g/L
[3]; IV, T24
  SDH (sorbitol dehydrogenase), median (range): 3 (2–4) U/L
  GLDH (glutamate dehydrogenase), median (range): 3 (3–5) U/L
  UN (urea nitrogen), median (range): 5.7 (5.4–7.5) mmol/L
  SAA (serum amyloid A), median (range): 8 (5–12) mg/L
  GGT (gamma glutamyl transferase), median (range): 11 (10–13) U/L
  GLOB (globulins), median (range): 37 (32–40) g/L
  ALB (albumin), median (range): 32 (30–35) g/L
  CREAT (creatinine), median (range): 115 (106–115) μmol/L
  TP (total protein), median (range): 68 (67–72) g/L
[3]; PO, T0 (before)
  SDH (sorbitol dehydrogenase), median (range): 5 (4–10) U/L
  GLDH (glutamate dehydrogenase), median (range): 6 (4–10) U/L
  UN (urea nitrogen), median (range): 6.4 (5.4–7.1) mmol/L
  SAA (serum amyloid A), median (range): 5 (5–7) mg/L
  GGT (gamma glutamyl transferase), median (range): 12 (7–13) U/L
  GLOB (globulins), median (range): 35 (30–38) g/L
  ALB (albumin), median (range): 32 (29–32) g/L
  CREAT (creatinine), median (range): 97 (88–106) μmol/L
  TP (total protein), median (range): 67 (62–70) g/L
[3]; PO, T24
  SDH (sorbitol dehydrogenase), median (range): 4 (3–5) U/L
  GLDH (glutamate dehydrogenase), median (range): 4 (4–7) U/L
  UN (urea nitrogen), median (range): 5.7 (4.6–6.4) mmol/L
  SAA (serum amyloid A), median (range): 5 (5–5) mg/L
  GGT (gamma glutamyl transferase), median (range): 12 (9–13) U/L
  GLOB (globulins), median (range): 36 (30–39) g/L
  ALB (albumin), median (range): 32 (29–33) g/L
  CREAT (creatinine), median (range): 106 (97–115) μmol/L
  TP (total protein), median (range): 65 (63–72) g/L
[3]; horses, 24 h after PO or IV administration
  changes in chosen biochemical test results: no significant changes
[4]
  inhibition of platelet activation in spiked equine PRP: did not see any inhibition
[5]; 0.2 mg/kg IV dose
  half-life: 1.1 h
[5]; IV administration 0.2 mg/kg
  Cmax: 460 ng/mL
[5]; oral 0.2 mg/kg
  bioavailability: 85%
[5]; oral administration 0.2 mg/kg
  Cmax: 74 ng/mL
[6]; 2.5 mg/kg IV dose
  half-life: 0.6 h
[6]; 10 mg/kg
  oral absorption: 3%
[7]
  availability after oral administration: 50%
[8]
  availability after oral administration: 50%
  fecal route of elimination, share of the dose: > 46%
[9]
  P-glycoprotein substrate: substrate
